Source: article PMC12717099, “Peptidoglycan recruitment by a penicillin binding protein” (Nature Communications, 2025)
Like-named read-outs stand apart in the source and are kept apart here.

Test system: PBP4
Details: for STD amplification factor, 2000: protein:peptide 1:100, 2 s saturation
Procedure: STD NMR experiments were carried out on 0.02 mM unlabeled PBP5T485, PBP4, and PBP2B in NMR buffer (10 mM MES pH 5.8, 25 mM NaCl) at 308 K with the peptides (SP1, SP2, SP4, SP5 and SP6 with PBP5, SP2 also with PBP4 and PBP2B) at 1:100 PBP5:peptide molar ratios using a pseudo 2D pulse sequence that leverages a shaped pulse train for saturation and selected water suppression by excitation sculpting with gradients. All STD experiments were performed at 800 MHz for best resolution and least signal overlap. Total saturation time for STD measurements was 2 s. A 2 s recycling delay, and 64 scans were used for all STD experiments. Selective protein saturation was achieved by setting the on-resonance frequency on PBP5 methyl peaks at 0.73 ppm. For the off-resonance (reference) spectrum, the irradiation frequency was shifted to −40 ppm. […] LTotal/PTotal is the ligand excess relative to a constant protein concentration.
For a uniform analysis, we normalized the STD amplification factor by using the highest STD amplification factor in the SP1:PBP5 analysis and using the same STD amplification factor to normalize other SPs (SP2-6) to allow for a rigorous comparison. For the analysis of the STD NMR data only data from non-exchangeable protons (CH groups) were utilized. Overlapped peaks were completely excluded from the analysis.

D-Lac-L-Ala-D-iGln-L-Lys(D-iAsn) [SP2]
STD % to SP1 (1H DLacβ): 28.7108%
STD amplification factor as fraction of highest SP1:PBP5 value (1H DLacβ): 0.2871
STD amplification factor, 2000 (1H DLacβ): 7.726
STD % to SP1 (1H DQ2β (first listed)): 57.5161%
STD amplification factor as fraction of highest SP1:PBP5 value (1H DQ2β (first listed)): 0.5752
STD amplification factor, 2000 (1H DQ2β (first listed)): 15.4766
STD % to SP1 (1H DQ2β (second listed)): 62.3639%
STD amplification factor as fraction of highest SP1:PBP5 value (1H DQ2β (second listed)): 0.6236
STD amplification factor, 2000 (1H DQ2β (second listed)): 16.7811
STD % to SP1 (1H DQ2γ): 18.9556%
STD amplification factor as fraction of highest SP1:PBP5 value (1H DQ2γ): 0.1896
STD amplification factor, 2000 (1H DQ2γ): 5.101
STD % to SP1 (1H K3α): 41.8044%
STD amplification factor as fraction of highest SP1:PBP5 value (1H K3α): 0.418
STD amplification factor, 2000 (1H K3α): 11.2489
STD % to SP1 (1H K3β): 89.5852%
STD amplification factor as fraction of highest SP1:PBP5 value (1H K3β): 0.8959
STD amplification factor, 2000 (1H K3β): 24.1059
STD % to SP1 (1H K3γ): 46.145%
STD amplification factor as fraction of highest SP1:PBP5 value (1H K3γ): 0.4615
STD amplification factor, 2000 (1H K3γ): 12.4169
STD % to SP1 (1H K3δ): 58.6188%
STD amplification factor as fraction of highest SP1:PBP5 value (1H K3δ): 0.5862
STD amplification factor, 2000 (1H K3δ): 15.7734
STD % to SP1 (1H K3ε): 16.4854%
STD amplification factor as fraction of highest SP1:PBP5 value (1H K3ε): 0.1649
STD amplification factor, 2000 (1H K3ε): 4.436
STD % to SP1 (1H LA1α): 41.4108%
STD amplification factor as fraction of highest SP1:PBP5 value (1H LA1α): 0.4141
STD amplification factor, 2000 (1H LA1α): 11.143
STD % to SP1 (1H LA1β): 30.5144%
STD amplification factor as fraction of highest SP1:PBP5 value (1H LA1β): 0.3051
STD amplification factor, 2000 (1H LA1β): 8.211
STD % to SP1 (1H iNα,DQ2α): 21.1266%
STD amplification factor as fraction of highest SP1:PBP5 value (1H iNα,DQ2α): 0.2113
STD amplification factor, 2000 (1H iNα,DQ2α): 5.685
STD % to SP1 (1H iNβ): 26.2423%
STD amplification factor as fraction of highest SP1:PBP5 value (1H iNβ): 0.2624
STD amplification factor, 2000 (1H iNβ): 7.061
